# Test results published in article PMC4133117 (Biochemical pharmacology, 2014).
# Columns and labels:
# ABCB1 [1] = target: T1, ABCB1 (Homo sapiens, UniProt P08183); test: vanadate-sensitive ATPase stimulation in crude membranes; assay type: biochemical
# ABCB1 [2] = target: T1, ABCB1
# T1 sequence (P08183 whole entry): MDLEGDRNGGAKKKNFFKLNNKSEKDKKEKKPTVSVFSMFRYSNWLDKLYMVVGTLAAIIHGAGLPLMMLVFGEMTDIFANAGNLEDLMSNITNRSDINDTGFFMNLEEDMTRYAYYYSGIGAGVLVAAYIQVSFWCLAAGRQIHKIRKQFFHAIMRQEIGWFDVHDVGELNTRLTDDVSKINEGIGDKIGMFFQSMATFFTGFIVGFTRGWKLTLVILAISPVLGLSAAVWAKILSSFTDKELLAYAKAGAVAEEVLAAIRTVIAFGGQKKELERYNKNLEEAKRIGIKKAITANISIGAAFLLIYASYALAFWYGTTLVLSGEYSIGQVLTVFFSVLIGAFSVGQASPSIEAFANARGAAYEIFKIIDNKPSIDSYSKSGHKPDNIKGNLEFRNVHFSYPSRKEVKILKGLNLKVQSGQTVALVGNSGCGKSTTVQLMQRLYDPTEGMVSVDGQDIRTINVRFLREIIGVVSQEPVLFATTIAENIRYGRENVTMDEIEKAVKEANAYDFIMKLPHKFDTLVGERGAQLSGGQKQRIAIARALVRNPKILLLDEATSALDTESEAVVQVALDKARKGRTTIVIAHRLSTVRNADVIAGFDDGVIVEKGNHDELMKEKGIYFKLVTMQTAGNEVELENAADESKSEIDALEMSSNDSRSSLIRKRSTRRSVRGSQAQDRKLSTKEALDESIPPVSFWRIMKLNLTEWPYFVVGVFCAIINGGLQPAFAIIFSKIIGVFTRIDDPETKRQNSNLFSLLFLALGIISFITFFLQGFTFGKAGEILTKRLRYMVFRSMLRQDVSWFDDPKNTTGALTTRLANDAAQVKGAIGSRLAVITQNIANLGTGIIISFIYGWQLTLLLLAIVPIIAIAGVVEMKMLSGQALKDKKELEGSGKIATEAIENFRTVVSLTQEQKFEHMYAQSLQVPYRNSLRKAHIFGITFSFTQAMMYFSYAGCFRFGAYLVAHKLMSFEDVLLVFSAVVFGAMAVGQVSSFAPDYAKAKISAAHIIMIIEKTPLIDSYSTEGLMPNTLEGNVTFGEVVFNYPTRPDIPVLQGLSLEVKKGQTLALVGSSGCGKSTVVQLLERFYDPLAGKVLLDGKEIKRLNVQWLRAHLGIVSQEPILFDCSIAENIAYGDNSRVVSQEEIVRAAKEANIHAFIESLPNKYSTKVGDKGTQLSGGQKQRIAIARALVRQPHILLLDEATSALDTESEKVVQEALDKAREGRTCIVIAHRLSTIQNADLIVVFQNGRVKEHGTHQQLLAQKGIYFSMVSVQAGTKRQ
SMILES,EC50 (ABCB1 [1]),radiolabelled efflux assay in KB-C2 vs KB-3-1 cells (ABCB1 [2])
CC1(C)CNc2cc(NC(=O)c3cccnc3NCc3ccncc3)ccc21 [motesanib],893 nM,
CC(=O)O[C@H]1C(=O)[C@@]2(C)[C@H]([C@H](OC(=O)c3ccccc3)[C@]3(O)C[C@H](OC(=O)[C@H](O)[C@@H](NC(=O)c4ccccc4)c4ccccc4)C(C)=C1C3(C)C)[C@]1(OC(C)=O)CO[C@@H]1C[C@@H]2O [paclitaxel],,significantly lower compared to that of parental KB-3-1 cells due to active transport of the [^3H]-paclitaxel by the ABCB1 transporter
